Earlier results as cited in patent publication US10328067B2, “Pharmaceutical oral dose formulation and composition of matter” (priority 2016, dated 2019).

Details: result in words; p-glycoprotein substrate

Compound: CC[C@]1(O)C[C@@H]2CN(CCc3c([nH]c4ccccc34)[C@@](C(=O)OC)(c3cc4c(cc3OC)N(C)[C@H]3[C@@](O)(C(=O)OC)[C@H](OC(C)=O)[C@]5(CC)C=CCN6CC[C@]43[C@@H]65)C2)C1 [vinblastine]
- intestinal absorption: negligible intestinal absorption
